Patent US20060093578A1, “Method and composition for treating multiple sclerosis” (Kyorin Pharmaceutical Co., Ltd., priority 2004, published 2006)

Assays:
[1] = tested on: IL-12 p70 production by microglia; experiment: IL-12 p70 production by LPS + IFNγ-stimulated microglia (ELISA); format: cell-based, C57BL/6J mice; settings: for IL-12 production by microglia: LPS and IFNγ stimulation, graded doses (FIG. 1, FIG. 9A); for IL-12 p70: mean ± SD (n = 9)
Method: Samples used for the experiments were prepared as described below. […] The cultures were maintained with Dulbecco's modified Eagle's minimum essential medium supplemented with 10% fetal calf serum, 5 μg/ml bovine insulin, and 0.2% glucose.
The supernatant was then collected and stored at −70° C. until assessed. From the remaining cells, total RNA was extracted, following the guanidinium thiocyanate method (RNeasy Mini Kit;QIAGEN). The cDNA encoding mouse TNFα, IL-1β, IL-6, iNOS (inducible nitric oxide synthetase), and IL-12, was generated by reverse transcription-polymerase chain reaction (RT-PCR) using Superscript II (INVITROGEN), and Ampli Taq DNA polymerase (APPLIED BIOSYSTEMS) with the specific primers shown in Table 1.
Cytokine production was measured with an ELISA kit specific for IL1, IL-6, TNFα, and IL-12 p70 (TECHNE Corp. MN). NO production was determined by Griess reaction. Briefly, a 50 μl aliquot of supernatants were mixed with an equal volume of Griess reagent (0.1% N-ethylenediarnine dihydrochloride, 1% sulfanilamide, and 2.5% phosphoric acid) and incubated for 15 minutes at room temperature, and the absorbance was read at 540 nm on a microtiter plate reader. Nitrite concentrations were calculated from a standard curve of NaNO2 (Yoshikawa M, Suzumura A, Tamaru T, et al. “Effects of phosphodiesterase inhibitors on microglia.” Multiple Scler 1999;5: 126-133, the contents of which are hereby incorporated by reference in their entirety).

[2] = tested on: peripheral blood mononuclear cells; settings: with IFNβ, synergistically; PBMC from patients with active MS; clinical trial; cited from earlier work
[3] = microglia + LPS (1 μg/mL) + IFNγ (1 ng/mL) + IFNβ 10^2 U/mL, agent 1 μM
[4] = microglia + LPS (1 μg/mL) + IFNγ (1 ng/mL) + IFNβ 10^2 U/mL, agent 10 μM
[5] = microglia + LPS (1 μg/mL) + IFNγ (1 ng/mL) + IFNβ 10^2 U/mL, agent 100 μM, detection limit 7 pg/mL
[6] = microglia + LPS (1 μg/mL) + IFNγ (1 ng/mL), agent 1 μM, stimulated control 118 ± 13
[7] = microglia + LPS (1 μg/mL) + IFNγ (1 ng/mL), agent 10 μM, stimulated control 118 ± 13
[8] = microglia + LPS (1 μg/mL) + IFNγ (1 ng/mL), agent 100 μM, detection limit 7 pg/mL

Structure (SMILES)	IL-12 production by microglia [1]	IL-12 p70 [1, 3] [pg/mL]	IL-12 p70 [1, 4] [pg/mL]	IL-12 p70 [1, 5]	IL-12 p70 [1, 6] [pg/mL]	IL-12 p70 [1, 7] [pg/mL]	IL-12 p70 [1, 8]	anti-inflammatory cytokine IL-10 [2]	production of inflammatory cytokines [2]
Cc1[nH]c(=O)c(C#N)cc1-c1ccc2nccn2c1 [Orprinone, orprinone]	dose-dependently suppressed	67 ± 14	44 ± 7	40 ± 9 pg/mL	107 ± 20	88 ± 14	32 ± 11 pg/mL		
CCCC(=O)Nc1ncnc2c1ncn2[C@@H]1O[C@@H]2COP(=O)(O)O[C@H]2[C@H]1OC(=O)CCC [dbcAMP, dibutyryl cAMP]	dose-dependently suppressed				122 ± 23	59 ± 18	23 ± 8 pg/mL		
CC(=O)CCCCn1c(=O)c2c(ncn2C)n(C)c1=O [pentoxifylline]								up-regulate	reduce
CC(C)C(=O)c1c(C(C)C)nn2ccccc12 [Ibudilast, ibudilast]		48 ± 11	43 ± 6	<7^a** pg/mL	53 ± 4	48 ± 5	<7^a* pg/mL		
C=C[C@@]1(C)CC(=O)[C@]2(O)[C@@]3(C)[C@@H](O)CCC(C)(C)[C@@H]3[C@H](O)[C@H](OC(C)=O)[C@@]2(C)O1 [forskoline, forskolin]		47 ± 10	34 ± 6	<7^a** pg/mL					
